Patent US20220323402A1, “TREATMENT, AMELIORATION OR PREVENTION OF A VIRAL INFECTION” (priority 2019, published 2022)

Columns and labels:
Pml promoter = test: PML promoter Gaussia Luciferase reporter assay in HEK-293 cells; assay type: cell-based, human; settings: HEK-293, 24 h post transfection; FIG. 28
Experimental: FIG. 28: Luciferase assay using a construct coding for the PML promoter cloned upstream of the reporter gene Gaussia Luciferase. HEK-293 cells were pre-treated with CH223191 and transfected with plasmids as indicated. 24 h post transfection, cells were harvested for quantification of Gaussia Luciferase and TK-Renilla activity. Data represent the mean+s.e.m. from three independent experiments. P values were determined by a one-way ANOVA followed by Tukey's post-hoc test.
PML shRNA plasmid (sc-36284-SH) was obtained from Santa Cruz Biotechnology. Transfection of HeLa cells was performed using Lipofectamine 2000 (Thermo Fisher) according to manufacturer's instructions. The plasmid encoding for the promoter region of PML, placed upstream of the Gaussia Luciferase (GLuc) reporter gene, was obtained from Genecopoeia. For the luciferase assay, HEK-293 cells were grown in 96 well-plates and transfected using Fugene-HD Transfection Reagent (Roche). Plasmids used for transfection in each condition are indicated in the experiment. 24 h later, pGudluc activity was analyzed using BioLux Gaussia Luciferase Assay Kit (New England Biolabs) and normalized to TK-Renilla luciferase activity, measured using the Renilla Luciferase Assay System (Promega).

[1] = test system: DENV-1, DENV-2, DENV-3, DENV-4; test: DENV plaque assay of supernatants of A549 cells; assay type: cell-based, dengue virus; settings: A549 pre-treated, moi=0.1, 24 h p.i.; FIGS. 63A-63D
Experimental: FIG. 62: AHR activation boosts DENV replication. A549 cells were pretreated with the indicated concentrations of I3S for 24 h and infected with DENV-2 (moi=0.1). 48 h p.i. supernatants were harvested for plaque assay.
FIGS. 63A-63D: AHR modulation affects DENV replication. Infectious virus particles in the supernatants of A549 cells pre-treated with CH2213191 and infected with DENV-1 (FIG. 63A), DENV-2 (FIG. 63B), DENV-3 (FIG. 63C) or DENV-4 (FIG. 63D) (moi=0.1). At 24 h p.i. supernatants were harvested for plaque assay.

AHR = AHR modulation in NPCs, qPCR of AHR, CYP1A1, IDO1 and TDO2; assay type: cell-based, human; settings: at the concentrations tested; NPCs 24 h; FIGS. 10A-10D
Experimental: FIGS. 10A-10D: AHR modulation in NPCs. NPCs were treated with I3S or a combination of I3S and CH223191. 24 h after treatment, NPCs were harvested for RNA extraction followed by qPCR analysis of AHR (FIG. 10A), CYP1A1 (FIG. 10B), IDO1 (FIG. 100) and TDO2 (FIG. 10D). Data represent the mean+s.e.m. from three independent experiments. P values were determined by Student's t-test.
RNA was extracted using the RNAeasy kit (Qiagen). cDNA was synthesized using the High-Capacity cDNA Reverse Transcription kit (Applied Biosystems) and qPCR was performed using TaqMan Fast Advanced Master Mix (Applied Biosystems). Gene expression was normalized to GAPDH. Primers and probes (Applied Biosystems) were: GAPDH Hs02786624_g1, IFNB1 Hs01077958_s1, AHR Hs00169233_m1, PML Hs00971694_m1, CYP1A1 Hs01054796_g1, IFITM1 Hs00705137_s1, CYP1B1 Hs02382916_s1, CXCL10 Hs00171042_m1, IDO1 Hs00984148_m1, IDO2 Hs01589373_m1, IFITM Hs00705137_s1, TDO Hs00194611_m1. Primers and probes for the specific detection of Zika virus RNA were utilized as previously described^81, 82. For viral load determination in vivo, brains and spleens from pups were macerated on trizol (Invitrogen) for RNA extraction. RNA pellets were resuspended in RNase-free water and quantified by spectrophotometry (NanoDrop—Thermo Scientific) and stored at −80° C. […] Quantification was compared with threshold cycle (Ct) value with a ZIKV plasmid standard curve.

ZIKV = test: qPCR of ZIKV RNA in HepG2 cells treated before, during or after infection (viral entry step); assay type: cell-based, Zika virus; settings: HepG2, moi=3, pretreatment, adsorption or internalization, qPCR 2 hours after infection; FIG. 17
Experimental: FIG. 17: Q-PCR quantification of ZIKV RNA in HepG2 cells treated with CH223191 or DMSO (vehicle) before infection, during infection, or after the infection with ZIKV (moi=3). 2 h p.i., cells were harvested for RNA extraction and qPCR analysis to determine the level of ZIKV RNA. Data represent the mean+s.e.m. from three independent experiments. P values were determined by Student's t-test.
To investigate whether AHR inhibition interferes with the viral entry step, we treated HepG2 cells with CH223191 at different early time points of ZIKV infection (pretreatment before viral entry, during viral adsorption and during virus internalization) and quantified ZIKV by qPCR 2 hours after infection. We detected no effect of CH223191 at these early timepoints during ZIKV infection as determined by qPCR, showing that AHR contributes to later stages of ZIKV replication (FIG. 17).
RNA was extracted using the RNAeasy kit (Qiagen). cDNA was synthesized using the High-Capacity cDNA Reverse Transcription kit (Applied Biosystems) and qPCR was performed using TaqMan Fast Advanced Master Mix (Applied Biosystems). Gene expression was normalized to GAPDH. […] RNA pellets were resuspended in RNase-free water and quantified by spectrophotometry (NanoDrop—Thermo Scientific) and stored at −80° C. […] Quantification was compared with threshold cycle (Ct) value with a ZIKV plasmid standard curve.

Which “Pml promoter transactivation by NF-κB in presence of co-expressed AHR” value (Pml promoter) does the source give for `Cc1ccccc1/N=N/c1ccc(NC(=O)c2ccnn2C)c(C)c1` [CH223191, 2-Methyl-2H-pyrazole-3-carboxylic Acid (2-methyl-4-o-tolylazo-phenyl)-amide] here?
Its value is “rescued”.

What about the “replication of the four DENV serotypes” value [1] of the same compound?
The value was “reduced”.

And the “AHR inhibition / activation” value (AHR)?
Its value is “significant AHR inhibition”.

What about the “effect on ZIKV RNA at early timepoints of infection” value (ZIKV) of the same compound?
The value was “no effect”.
